From article PMC3699191 (Journal of medicinal chemistry, 2010) come the findings set out here.

The target in this experiment is mCB2 (membranes from HEK293 cells expressing mouse CB2) (Mus musculus, UniProt P47936). As to the kind of experiment: Mouse CB2 binding assay, [3H]CP-55,940 competition. The note with it: CB2 over CB1.
Sequence of mCB2 (membranes from HEK293 cells expressing mouse CB2) (P47936 whole entry): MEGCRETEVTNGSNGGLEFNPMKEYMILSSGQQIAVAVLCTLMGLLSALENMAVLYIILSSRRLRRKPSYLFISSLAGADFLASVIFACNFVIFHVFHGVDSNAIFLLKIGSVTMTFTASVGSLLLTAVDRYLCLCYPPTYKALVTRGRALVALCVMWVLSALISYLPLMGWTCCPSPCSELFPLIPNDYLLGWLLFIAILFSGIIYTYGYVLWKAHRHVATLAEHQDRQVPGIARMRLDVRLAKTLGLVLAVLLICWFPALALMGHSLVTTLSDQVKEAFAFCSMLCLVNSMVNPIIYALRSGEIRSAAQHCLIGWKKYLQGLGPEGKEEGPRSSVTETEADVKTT

On to `CC1(C)Oc2cc(C34CC5CC(CC(C5)O3)C4)cc(O)c2[C@@H]2C[C@H](O)CC[C@H]21` [compound 16], for which the “selectivity for CB2” value was 2 fold.
